21 molecules from patent US20170066717A1, “NEW PHENYLAZETIDINECARBOXYLATE OR -CARBOXAMIDE COMPOUNDS” (INVENTIVA, priority 2014, published 2017) can be followed below.

In general, pEC50 refers to −log10 of the EC50, conventionally taken in molar units. A word on the melting point: it is the temperature of the solid-liquid transition. For orientation: Emax means the size of the effect at its maximum, as opposed to the concentration needed.

In one data set the target is T1, NURR-1/RXRα (Homo sapiens, UniProt P19793).
T1 construct: expressed in transfected cells; host or cells: Cos-7 cells
Kind of data set: Transactivation test, NURR-1-Gal4/RXRα, luciferase reporter in Cos-7 cells. The class given is cell-based. The note with it: for pEC50: Cos-7 cells, NURR-1-Gal4/RXRα, luciferase reporter, read-out: hNurr1_RXRaFL EC50; for Emax: COS-7, induction level relative to reference XCT0135908 at 2×10^−5 M (=100%), read-out: hNurr1_RXRaFL Emax (%).

A further data set has as its target T2, NURR-1/RXRγ (Homo sapiens, UniProt P48443).
T2 construct: expressed in transfected cells; host or cells: Cos-7 cells
Put plainly: Transactivation test, NURR-1-Gal4/RXRγ, luciferase reporter in Cos-7 cells. The class given is cell-based. The note with it: for pEC50: Cos-7 cells, NURR-1-Gal4/RXRγ, luciferase reporter, read-out: hNurr1_RXRgFL EC50; for Emax: COS-7, induction level relative to reference XCT0135908 at 2×10^−5 M (=100%), read-out: hNurr1_RXRgFL Emax (%). A general note: In a reporter assay the amount or activity of a reporter protein is the signal.

Where [1] appears, read: induction level relative to reference XCT0135908 at 2×10^−5 M (=100%).

pEC50: −log10 of the molar value.

T2 sequence (P48443 whole entry): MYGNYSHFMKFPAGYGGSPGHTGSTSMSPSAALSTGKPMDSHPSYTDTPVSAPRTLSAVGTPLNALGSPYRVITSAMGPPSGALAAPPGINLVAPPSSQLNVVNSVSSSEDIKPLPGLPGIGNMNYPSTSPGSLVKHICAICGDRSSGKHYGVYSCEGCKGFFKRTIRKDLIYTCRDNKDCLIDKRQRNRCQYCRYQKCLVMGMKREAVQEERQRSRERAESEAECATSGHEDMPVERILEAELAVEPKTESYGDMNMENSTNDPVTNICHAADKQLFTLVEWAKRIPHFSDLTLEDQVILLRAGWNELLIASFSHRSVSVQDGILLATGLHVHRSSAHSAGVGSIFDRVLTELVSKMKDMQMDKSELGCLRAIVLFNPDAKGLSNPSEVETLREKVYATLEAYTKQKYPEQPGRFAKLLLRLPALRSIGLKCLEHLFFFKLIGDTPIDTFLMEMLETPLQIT
T2 sequence (P43354 whole entry partner): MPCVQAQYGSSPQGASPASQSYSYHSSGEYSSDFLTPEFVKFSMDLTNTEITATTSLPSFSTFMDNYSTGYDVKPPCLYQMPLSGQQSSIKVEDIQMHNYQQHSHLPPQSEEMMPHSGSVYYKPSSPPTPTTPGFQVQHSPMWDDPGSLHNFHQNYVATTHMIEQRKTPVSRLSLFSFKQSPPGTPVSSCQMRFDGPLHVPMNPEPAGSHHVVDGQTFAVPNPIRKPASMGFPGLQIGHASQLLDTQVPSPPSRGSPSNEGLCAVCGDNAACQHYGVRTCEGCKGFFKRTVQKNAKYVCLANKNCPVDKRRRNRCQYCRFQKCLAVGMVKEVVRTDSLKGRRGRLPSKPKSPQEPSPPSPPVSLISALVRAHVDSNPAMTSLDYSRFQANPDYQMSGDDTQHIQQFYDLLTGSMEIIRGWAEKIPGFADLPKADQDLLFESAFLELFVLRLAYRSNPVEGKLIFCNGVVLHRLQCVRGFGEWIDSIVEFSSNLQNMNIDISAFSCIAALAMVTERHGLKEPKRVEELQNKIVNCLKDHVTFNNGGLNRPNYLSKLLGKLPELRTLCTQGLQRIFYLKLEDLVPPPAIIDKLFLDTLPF
T2 sequence (P04386 1-147 partner limits assumed): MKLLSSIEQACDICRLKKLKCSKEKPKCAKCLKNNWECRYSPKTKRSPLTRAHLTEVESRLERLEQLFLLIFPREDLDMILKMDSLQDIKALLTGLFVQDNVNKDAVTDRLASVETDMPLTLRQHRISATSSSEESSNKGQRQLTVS
T1 sequence (P19793 whole entry): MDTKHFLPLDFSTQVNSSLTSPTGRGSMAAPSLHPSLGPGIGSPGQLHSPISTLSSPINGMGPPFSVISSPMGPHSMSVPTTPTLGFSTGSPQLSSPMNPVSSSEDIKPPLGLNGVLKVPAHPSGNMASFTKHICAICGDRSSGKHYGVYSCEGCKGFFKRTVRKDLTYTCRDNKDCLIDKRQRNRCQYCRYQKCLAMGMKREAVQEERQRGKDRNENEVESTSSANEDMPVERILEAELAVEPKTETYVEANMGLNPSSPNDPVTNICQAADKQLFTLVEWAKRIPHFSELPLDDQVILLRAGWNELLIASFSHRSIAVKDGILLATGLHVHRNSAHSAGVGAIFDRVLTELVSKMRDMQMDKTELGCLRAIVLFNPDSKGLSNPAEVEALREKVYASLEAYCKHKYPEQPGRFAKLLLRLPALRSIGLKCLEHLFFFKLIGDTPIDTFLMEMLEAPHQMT
T1 sequence (P43354 whole entry partner): as the sequence (P43354 whole entry partner) above
T1 sequence (P04386 1-147 partner limits assumed): as the sequence (P04386 1-147 partner limits assumed) above

`CC(C)CC1Oc2cc(C(F)(F)F)ccc2N(c2cccc(N3CC(C(=O)O)C3)c2)C1=O` (single isomer, unassigned; isomer 2) [Example 246-2, 1-[3-[2-isobutyl-3-oxo-7-(trofluormethyl)-1,4-benzoxazin-4-yl]phenyl]azetidine-3-carboxylic acid, isomer 2] yielded a melting point of 57 to 70 °C. Further, the pEC50 on NURR-1/RXRα was 7.14. Also, the “hNurr1_RXRaFL Emax (%)” value at NURR-1/RXRα (setting [1]) worked out at 58%. For the same molecule, the pEC50 at NURR-1/RXRγ was 6.90. For the same molecule, at NURR-1/RXRγ (setting [1]), the “hNurr1_RXRgFL Emax (%)” value stood at 46%.

`O=C(O)C1CN(c2cccc(-c3cc(C(F)(F)F)cc4c3NCC3(CCC3)O4)c2)C1` [Example 62, 1-[3-[7-(trifluoromethyl)spiro[3,4-dihydro-1,4-benzoxazine-2,1′-cyclobutane]-5-yl]phenyl]azetidine-3-carboxylic acid] yielded a melting point of 80 to 85 °C. Moreover, at NURR-1/RXRα, the Emax amounted to 97% and the negative logarithm of the EC50 (pEC50) is 8.40. In addition, on NURR-1/RXRγ, the Emax came out at 107% and the negative-log EC50 (pEC50) is 8.15.

The molecule `CCC1CNc2c(cc(C(F)(F)F)cc2-c2cccc(N3CC(C(=O)O)C3)c2)O1` (stereo not drawn) [Example 66, 1-[3-[2-ethyl-7-(trifluoromethyl)-3,4-dihydro-2H-1,4-benzoxazin-5-yl]phenyl]azetidine-3-carboxylic acid] gave a melting point of 115 to 121 °C. Moreover, on NURR-1/RXRα, the maximum response (Emax) amounted to 98% and the pEC50 is 8.10. Moreover, at NURR-1/RXRγ, the Emax was 95% and the pEC50 is 7.60.

`Cc1ccc(N2CC(C(=O)O)C2)cc1-c1cccc(C(C)C)c1` [Example 69, 1-[3-(3-isopripylphenyl)-4-methylphenyl]azetidine-3-carboxylic acid]: the melting point fell in the range of 71 to 76 °C. On NURR-1/RXRα, the Emax came out at 63% and the negative-log EC50 (pEC50) is 6.84. Also, on NURR-1/RXRγ, the Emax stood at 57% and the pEC50 is 6.85.

`CC(C)c1cc2c(c(-c3cccc(N4CC(C(=O)O)C4)c3)c1)C(=O)CC(C)(C)O2` [Example 71, 1-[3-(7-isopropyl-2,2-dimethyl-4-oxochroman-5-yl)phenyl]azetidine-3-carboxylic acid]: the melting point lay within 70 to 88 °C. In addition, at NURR-1/RXRα, the Emax was 96% and the negative logarithm of the EC50 (pEC50) is 6.49. Also, on NURR-1/RXRγ, the Emax was determined as 101% and the negative logarithm of the EC50 (pEC50) is 6.36.

`CCc1noc2cc(C(C)C)cc(-c3cccc(N4CC(C(=O)O)C4)c3)c12` [Example 72, 1-[3-(3-ethyl-6-isopropy;-1,2-benzoxazol-4-yl)phenyl]azetidine-3-carboxylic acid] returned a melting point of 63 to 69 °C. For the same molecule, on NURR-1/RXRα, the Emax came to 97% and the pEC50 is 8.15. At NURR-1/RXRγ, the Emax amounted to 112% and the pEC50 was 7.40.

In turn, `O=C(O)C1CN(c2cccc(-c3cc(C(F)(F)F)nc4cc(Cl)ccc34)c2)C1` [Example 82, 1-[3-[7-chloro-2-(trifluoromethyl)-4-quinolyl]phenyl]azetidine-3-carboxylic acid] showed a melting point of 98 to 101 °C. Further, at NURR-1/RXRα, the Emax was determined as 110% and the negative-log EC50 (pEC50) was 7.51. At NURR-1/RXRγ, the maximum response (Emax) was determined as 99% and the negative-log EC50 (pEC50) was 7.14.

Molecule `Cc1cc2c(cc1-c1cccc(N3CC(C(=O)O)C3)c1)C(C)(C)CCC2(C)C` [Example 85, 1-[3-(1,1,4,4,7-pentamethyltetralin-6-yl)phenyl]azetidine-3-carboxylic acid] displayed a melting point of 130 to 141 °C. Further, at NURR-1/RXRα, the Emax was determined as 112% and the negative logarithm of the EC50 (pEC50) was 7.72. At NURR-1/RXRγ, the maximal response (Emax) came out at 116% and the pEC50 was 7.31.

`CCc1cc2c(cc1-c1cccc(N3CC(C(=O)O)C3)c1)C(C)(C)CCC2(C)C` [Example 86, 1-[3-(7-ethyl-1,1,4,4,-tetramethyltetralin-6-yl)phenyl]azetidine-3-carboxylic acid] gave a melting point of 78 to 88 °C. Also, at NURR-1/RXRα, the maximum response (Emax) was 107% and the pEC50 was 8.22. Moreover, at NURR-1/RXRγ, the Emax was 97% and the pEC50 is 7.80.

In turn, `Cc1cc(N2CC(C(=O)O)C2)cc(N2CC(C)(C)Oc3cc(C(F)(F)F)ccc32)c1` [Example 116, 1-[3-[2,2-dimethyl-7-(trifluoromethyl)-3H-1,4-benzoxazin-4-yl]-5-methylphenyl]azetidine-3-carboxylic acid] displayed a melting point of 93 to 98 °C. On NURR-1/RXRα, the maximal response (Emax) was found to be 111% and the pEC50 is 8.70. At NURR-1/RXRγ, the Emax worked out at 115% and the pEC50 is 9.00.

With `CC1(C)CN(c2cccc(N3CC(C(=O)O)C3)c2)c2ccccc2O1` [Example 119, 1-[3-(2,2-dimethyl-3H-1,4-benzoxazin-4-yl)phenyl]azetidine-3-carboxylic acid], the melting point is 59 to 64 °C. Further, at NURR-1/RXRα, the Emax was determined as 101% and the pEC50 was 6.62. At NURR-1/RXRγ, the Emax amounted to 94% and the pEC50 was 6.29.

Molecule `CC1(C)Oc2cc(C(F)(F)F)ccc2N(c2cccc(N3CC(C(=O)O)C3)c2)C1=O` [Example 120, 1-[3-[2,2-dimethyl-3-oxo-7-(trifluoremethyl)-1,4-benzoxazin-4-yl]phenyl]azetidine-3-carboxylic acid] returned a melting point of 80 to 86 °C. At NURR-1/RXRα, the Emax is 108% and the negative logarithm of the EC50 (pEC50) was 7.70. Also, at NURR-1/RXRγ, the Emax was found to be 112% and the negative logarithm of the EC50 (pEC50) is 7.47.

`CCC1Oc2cc(C(F)(F)F)ccc2N(c2cccc(N3CC(C(=O)O)C3)c2)C1=O` (stereo not drawn) [Example 123, 1-[3-[2-ethyl-3-oxo-7-(trifluromethyl)-1,4-benzoxazin-4-yl]phenyl]azetidine-3-carboxylic acid]: the melting point lay within 148 to 152 °C. For the same molecule, on NURR-1/RXRα, the Emax was 90% and the pEC50 was 6.92. Moreover, at NURR-1/RXRγ, the Emax is 77% and the negative logarithm of the EC50 (pEC50) was 7.43.

`CC1COc2cc(C(F)(F)F)ccc2N1c1cccc(N2CC(C(=O)O)C2)c1` (stereo not drawn) [Example 124, 1-[3-[3-methyl-7-(trifluoromethyl)-2,3-dihydro-1,4-benzoxazin-4-yl]phenyl]azetidine-3-carboxyltc add]: the melting point lay within 62 to 70 °C. On NURR-1/RXRα, the Emax amounted to 137% and the pEC50 is 7.72. In addition, at NURR-1/RXRγ, the maximum response (Emax) stood at 139% and the negative-log EC50 (pEC50) is 7.54.

For `O=C(O)C1CN(c2cccc(-n3cc(CC4CCC4)c4cc(C(F)(F)F)ccc43)c2)C1` [Example 126, 1-[3-[3-(cyclobutylmethyl)-5-(trifluromethyl)indol-1-yl]phenyl]azetidine-3-carboxylc acid], the melting point fell in the range of 58 to 64 °C. For the same molecule, at NURR-1/RXRα, the Emax stood at 128% and the pEC50 is 9.00. Further, at NURR-1/RXRγ, the Emax was found to be 116% and the pEC50 was 8.52.

Molecule `O=C(O)C1CN(c2cccc(-n3cc(CC4CCOC4)c4cc(C(F)(F)F)ccc43)c2)C1` (stereo not drawn) [Example 128, 1-[3-[3-(tetrahydrofuran-3-ylmethyl)-5-(trifluromethyl)indol-1-yl]phenyl]adetidine-3-carboxylic acid] showed a melting point of 63 to 67 °C. For the same molecule, on NURR-1/RXRα, the maximal effect (Emax) is 110% and the negative-log EC50 (pEC50) is 8.52. Also, at NURR-1/RXRγ, the Emax came to 105% and the negative logarithm of the EC50 (pEC50) is 8.22.

In the case of `O=C(O)C1CN(c2cccc(-n3cc(CN4CCOCC4)c4cc(C(F)(F)F)ccc43)c2)C1` [Example 132, 1-[3-[3-(morpholinomethyl)-5-(trifluoromethyl)indol-1-yl]phenyl]azetidine-3-carboxylic acid], the melting point fell in the range of 93 to 98 °C. On NURR-1/RXRα, the maximum response (Emax) turned out to be 97% and the pEC50 is 7.21. Besides, at NURR-1/RXRγ, the maximum response (Emax) turned out to be 132% and the negative-log EC50 (pEC50) was 6.88.

The molecule `COCCNCc1cn(-c2cccc(N3CC(C(=O)O)C3)c2)c2ccc(C(F)(F)F)cc12` [Example 133, 1-[3-[3-[(2-methoxyethylamino)methyl]-5-(trifluoromethyl)indol-1-yl]phenyl]azetidine-3-carboxylic acid] showed a melting point of 116 to 121 °C. On NURR-1/RXRα, the Emax was determined as 93% and the pEC50 was 5.99. On NURR-1/RXRγ, the Emax is 61% and the negative-log EC50 (pEC50) is 5.70.

For the molecule `CC(C)N(C)Cc1cn(-c2cccc(N3CC(C(=O)O)C3)c2)c2ccc(C(F)(F)F)cc12` [Example 134, 1-[3-[3-[[iisopropyl(methyl)amino]methyl]-5-(trifluoromethyl)indol-1-yl]phenyl]azetidine-3-carboxylic acid], the melting point was 88 to 95 °C. On NURR-1/RXRα, the Emax worked out at 89% and the pEC50 was 6.64. Further, on NURR-1/RXRγ, the maximum response (Emax) amounted to 108% and the pEC50 is 6.18.

Molecule `O=C(O)C1CN(c2cccc(-n3cc(S(=O)(=O)c4ccccc4)c4cc(C(F)(F)F)ccc43)c2)C1` [Example 135, 1-[3-[3-(benzenesulfonyl)-5-(trifluoromethyl)indol-1-yl]phenyl]azetidine-3-carboxylic acid] yielded a melting point of 150 to 153 °C. Moreover, on NURR-1/RXRα, the Emax came out at 77% and the pEC50 is 7.47. Besides, on NURR-1/RXRγ, the maximal effect (Emax) was found to be 83% and the negative-log EC50 (pEC50) was 7.19.

The molecule `O=C(O)C1CN(c2cccc(N3CC4(CCOCC4)c4cc(C(F)(F)F)ccc43)c2)C1` [Example 141, 1-[3-[5-(trifluoromethyl)spiro[indoline-3,4′-tetrahydropyran]-1-yl]phenyl]azetidine-3-carboxylic acid] returned a melting point of 154 to 162 °C. Besides, at NURR-1/RXRα, the Emax was found to be 92% and the pEC50 is 6.85. Moreover, on NURR-1/RXRγ, the Emax came to 113% and the pEC50 was 6.70.
